Test results from article PMC9720492 (2022).

Test system: wHTel-26 (DNA, G4) TTAGGGTTAGGGTTAGGGTTAGGGTT
Test: CD melting
Conditions: 100 mM KCl; 10 mM phosphate, 1 mM EDTA, pH 7.0; 20 µM DNA, D/N 5.0

Tm: 10–13 (±2) °C
SMILES: CCN(CC)CCC(=O)Nc1ccc2c(c1)C(=O)c1ccc(NC(=O)CCN(CC)CC)cc1C2=O
